According to PubChem BioAssay AID434954 (Broad Institute, 2010):
Active and inactive are the calls of the source.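 How the source made its calls: active means IC50 at or below a set limit above the highest tested dose; inconclusive means flat curve with 30 to 70% inhibition, or poor fit; inactive means the rest.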

Target: Glycogen synthase kinase-3 beta (Homo sapiens) (UniProt P49841)
Test: concentration-response blocking of human GSK3B – biochemical, luminescence, cell-free homogeneous, retest, dose response (AID 434954)
Settings: recombinant GSK3beta, ADP-Glo luminescence, 60 min

Chain of Glycogen synthase kinase-3 beta (Homo sapiens) (P49841 whole entry, looked up): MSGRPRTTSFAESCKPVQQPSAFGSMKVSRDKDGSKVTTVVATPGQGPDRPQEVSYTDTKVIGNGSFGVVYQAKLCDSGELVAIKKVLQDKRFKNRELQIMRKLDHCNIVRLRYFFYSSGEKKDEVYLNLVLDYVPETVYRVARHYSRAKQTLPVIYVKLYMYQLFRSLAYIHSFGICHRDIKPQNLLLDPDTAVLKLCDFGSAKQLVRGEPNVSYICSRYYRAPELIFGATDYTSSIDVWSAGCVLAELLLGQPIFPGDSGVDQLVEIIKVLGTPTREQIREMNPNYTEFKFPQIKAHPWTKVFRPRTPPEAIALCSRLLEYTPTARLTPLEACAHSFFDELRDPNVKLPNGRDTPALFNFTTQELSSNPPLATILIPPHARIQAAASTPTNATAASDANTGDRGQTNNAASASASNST

With O=c1[nH]c(N/N=C/c2ccccc2)nc2ccccc12 as the compound, how does the IC50 read?
Its IC50 is > 30 µM (inactive).

How did the IC50 turn out when CCOC(=O)C1=C(C)Nc2ncnn2C1c1ccc2c(c1)OCO2 (centres undefined) was run?
The IC50 was > 30 µM (inactive).

With O/N=C/c1ccc(OCc2ccccc2)c(Cl)c1 as the compound, how does the IC50 read?
Its IC50 is > 30 µM (inactive).

Oc1ccccc1/C=N/Nc1nn[nH]n1 was tested. Which IC50 did it give?
Its IC50 is > 30 µM (inactive).

For Cc1c(C#N)c(O)[nH]c(=O)c1N=Nc1ccc(Br)cc1C(=O)O, which IC50 is on record?
Its IC50 is > 30 µM (inactive).

With COc1ccc(-c2nn(-c3ccccc3)cc2/C=N/O)cc1OC as the compound, how does the IC50 read?
Its IC50 is 3.99 µM.

Cc1ccc(/C=N/Nc2ncnc3nc[nH]c23)cc1 was tested. Which IC50 did it give?
Its IC50 is 30.1 µM.

CSc1nc2c(c(=O)[nH]1)C(c1cccs1)C1=C(CCCC1=O)N2 (centres undefined) was tested. Which IC50 did it give?
Its IC50 is > 30 µM (inactive).

COc1ccc(-c2nn(CCC#N)cc2/C=N/O)cc1OC was tested. Which IC50 did it give?
The IC50 was > 30 µM (inactive).

For Cc1[nH]nc2c1C(c1ccc(N(C)C)cc1)C1=C(CC(C)(C)CC1=O)N2 (centres undefined), which IC50 is on record?
Its IC50 is 28 µM.

How did the IC50 turn out when N#CC(C#N)=C1NC(N)=C(C#N)C(c2ccccc2)=C1C#N was run?
Its IC50 is 19.2 µM.

Clc1ccc(/C=N/Nc2ncnc3nc[nH]c23)cc1 was tested. Which IC50 did it give?
Its IC50 is 20.4 µM.

Which IC50 does the source give for CCOC(=O)C1=C(C)Nc2ncnn2C1c1ccc(N(C)C)cc1 (centres undefined) here?
Its IC50 is > 30 µM (inactive).

Which IC50 does the source give for Cc1c(C=Nc2ccc(S(=O)(=O)N(C)C)cc2)c(O)[nH]c(=O)c1C#N here?
The IC50 was > 30 µM (inactive).

Cc1ccc(-c2nn(-c3ccccc3)cc2/C=N/O)cc1 was tested. Which IC50 did it give?
Its IC50 is 0.565 µM.

With CCOC(=O)C1=C(C)Nc2ncnn2C1c1cccnc1 (centres undefined) as the compound, how does the IC50 read?
Its IC50 is > 30 µM (inactive).

CC1=C(C(=O)OCC2CCCO2)C(c2ccsc2)C2=C(CC(C)(C)CC2=O)N1 (centres undefined) was tested. Which IC50 did it give?
The IC50 was > 30 µM (inactive).

COc1ccc(COC(=O)C2=C(C)NC(=O)NC2c2ccc(O)c(OC)c2)cc1 (centres undefined) was tested. Which IC50 did it give?
The IC50 was > 30 µM (inactive).

For O=C(Nc1cccc2c1C(=O)NC2=O)c1cccc(N2C(=O)CCC2=O)c1, which IC50 is on record?
The IC50 was > 30 µM (inactive).

With CCOC(=O)c1sc2c(c1C)C(c1cccs1)C1=C(CCCC1=O)N2 (centres undefined) as the compound, how does the IC50 read?
Its IC50 is > 30 µM (inactive).

With C/C(=N\O)c1ncc(C(F)(F)F)cc1Cl as the compound, how does the IC50 read?
The IC50 was > 30 µM (inactive).

With CCOc1ccc(N2C(=O)C(Cl)=C(Nc3ccccc3O)C2=O)cc1 as the compound, how does the IC50 read?
The IC50 was > 30 µM (inactive).

For CC1=C(C(=O)OCc2ccccc2)C(c2cccnc2)n2ncnc2N1 (centres undefined), which IC50 is on record?
The IC50 was 28 µM.

For CC1(C)CC(=O)C2=C(C1)Nc1cc3c(cc1C2c1ccc(F)cc1)OCO3 (centres undefined), which IC50 is on record?
The IC50 was > 30 µM (inactive).

Which IC50 does the source give for Cc1cc(=O)[nH]c(N/N=C/c2ccc(-c3ccc([N+](=O)[O-])cc3)o2)n1 here?
The IC50 was > 30 µM (inactive).

How did the IC50 turn out when O=c1[nH]c(=O)n(Cc2ccc(F)cc2)c(O)c1C=NCCN1CCCCC1 was run?
Its IC50 is > 30 µM (inactive).

For Nc1nc(F)nc2c1ncn2[C@@H]1O[C@H](CO)[C@@H](O)[C@H]1O, which IC50 is on record?
Its IC50 is > 30 µM (inactive).

With Nc1nc(F)nc2c1ncn2[C@@H]1O[C@H](CO)[C@@H](O)[C@@H]1O as the compound, how does the IC50 read?
The IC50 was > 30 µM (inactive).

CC1=C(C(=O)OCC2CCCO2)C(c2ccc(O)cc2)NC(=O)N1 (centres undefined) was tested. Which IC50 did it give?
Its IC50 is > 30 µM (inactive).

With COc1cc(-c2[nH]nc3c2C(c2ccco2)C(C#N)=C(N)O3)cc(OC)c1OC (centres undefined) as the compound, how does the IC50 read?
Its IC50 is 8.59 µM.

How did the IC50 turn out when CSc1nc2c(c(=O)[nH]1)C(c1ccccc1)C1=C(CC(C)(C)CC1=O)N2 (centres undefined) was run?
The IC50 was > 30 µM (inactive).

CCCCOC(=O)C1=C(C)Nc2ncnn2C1c1cc(OC)c(OC)cc1OC (centres undefined) was tested. Which IC50 did it give?
The IC50 was > 30 µM (inactive).

CCOC(=O)/C(C(=O)Nc1ccc(Cl)cc1Cl)=C1/NC(C)(C)Cc2ccccc21 was tested. Which IC50 did it give?
The IC50 was > 30 µM (inactive).

With CCOC(=O)C1=C(C)Nc2ncnn2C1c1ccccc1F (centres undefined) as the compound, how does the IC50 read?
The IC50 was > 30 µM (inactive).

How did the IC50 turn out when O=c1[nH]c(=O)n(CCc2ccc(F)cc2)c(O)c1/C=N/N1CCCCC1 was run?
The IC50 was > 30 µM (inactive).

How did the IC50 turn out when O=C(O)c1ccc(-c2ccc(/C=N/Nc3ccc([N+](=O)[O-])cc3)o2)cc1 was run?
Its IC50 is > 30 µM (inactive).

With COc1cc(/C=N/O)ccc1OCc1ccccc1Cl as the compound, how does the IC50 read?
The IC50 was > 30 µM (inactive).

Which IC50 does the source give for CC1=C(C(=O)OCc2ccccc2)C(c2ccccc2OC(F)F)NC(=O)N1 (centres undefined) here?
The IC50 was 4.4 µM.

Which IC50 does the source give for CCc1ccc(C2NC(=S)NC3=C2C(=O)CC(C)(C)C3)cc1 (centres undefined) here?
The IC50 was > 30 µM (inactive).

With COc1cc(C2C(C(=O)c3cccs3)=C(O)C(=O)N2CCN2CCOCC2)ccc1OCCC(C)C (centres undefined) as the compound, how does the IC50 read?
The IC50 was > 30 µM (inactive).

CC1(C)CC(=O)C2=C(C1)Nc1ccccc1NC2c1ccc(F)cc1 (centres undefined) was tested. Which IC50 did it give?
Its IC50 is > 30 µM (inactive).

COc1cccc(C2C3=C(CCCC3=O)Nc3[nH]n(-c4ccccc4)c(=O)c32)c1 (centres undefined) was tested. Which IC50 did it give?
The IC50 was > 30 µM (inactive).

With COc1ccc(-c2nn(-c3ccccc3)cc2/C=N/Nc2ccccn2)cc1 as the compound, how does the IC50 read?
The IC50 was > 30 µM (inactive).

How did the IC50 turn out when CCN(CC)S(=O)(=O)c1cccc(N2CC(O)=C(c3ccccc3)C2=N)c1 was run?
Its IC50 is > 30 µM (inactive).

Which IC50 does the source give for COc1cc(/C=N\Nc2ccc([N+](=O)[O-])cc2)ccc1OCC(=O)Nc1ccc(C)c(C)c1 here?
Its IC50 is > 30 µM (inactive).

With O=C1CCCC2=C1C(c1cccs1)Nc1ccccc1N2 (centres undefined) as the compound, how does the IC50 read?
The IC50 was > 30 µM (inactive).

For CCOC(=O)C1=C(C)Nc2ncnn2C1/C=C/c1ccccc1 (centres undefined), which IC50 is on record?
Its IC50 is > 30 µM (inactive).

CCOC(=O)C1=C(C)Nc2ncnn2C1c1cc(Br)ccc1F (centres undefined) was tested. Which IC50 did it give?
The IC50 was 24 µM.

For CCOc1cc(C2C(C(=O)N3CCCCC3)=C(C)NC3=C2C(=O)CC(C)(C)C3)ccc1O (centres undefined), which IC50 is on record?
The IC50 was > 30 µM (inactive).

How did the IC50 turn out when Oc1ccc(/C=N/Nc2ccc(C(F)(F)F)cn2)cc1O was run?
Its IC50 is 16.1 µM.

Which IC50 does the source give for C(=N\Nc1nccc(-c2cccnc2)n1)/c1ccccc1 here?
Its IC50 is 16.9 µM.

O=C(O)Cn1cc(/C=N/Nc2ccc([N+](=O)[O-])cn2)c2ccccc21 was tested. Which IC50 did it give?
The IC50 was 8.24 µM.

For Cc1[nH]nc2c1C(c1cccs1)C1=C(CC(C)(C)CC1=O)N2 (centres undefined), which IC50 is on record?
Its IC50 is 1.36 µM.

For COC(=O)c1ccc(N2C(=O)CC(N3CCN(C(=O)c4ccco4)CC3)C2=O)cc1 (centres undefined), which IC50 is on record?
The IC50 was > 30 µM (inactive).

How did the IC50 turn out when O=[N+]([O-])c1cc(/C=N\O)ccc1Oc1ccc(F)cc1 was run?
Its IC50 is 23 µM.

With CCN(CC)CCN1C(=O)C(=O)/C(=C(/O)c2ccc(S(=O)(=O)N3CCOCC3)cc2)C1c1ccccc1 (centres undefined) as the compound, how does the IC50 read?
Its IC50 is > 30 µM (inactive).

C=CCOc1ccc(/C=N/Nc2ccccn2)cc1OC was tested. Which IC50 did it give?
The IC50 was > 30 µM (inactive).

COc1ccc(-c2nn(-c3ccccc3)cc2/C=N/Nc2ccc3ccccc3n2)cc1OC was tested. Which IC50 did it give?
Its IC50 is > 30 µM (inactive).

Which IC50 does the source give for O=C(O)CC1S/C(=N/N=C/c2ccc(-c3ccc(Cl)c([N+](=O)[O-])c3)o2)NC1=O (centres undefined) here?
Its IC50 is > 30 µM (inactive).

With COc1ccc(C2C3=C(CC(C)(C)CC3=O)Nc3n[nH]c(C)c32)cc1 (centres undefined) as the compound, how does the IC50 read?
The IC50 was 28.3 µM.

For CC1=C(C#N)C(c2ccc(O)cc2)C2=C(CC(C)(C)CC2=O)N1 (centres undefined), which IC50 is on record?
Its IC50 is > 30 µM (inactive).

Which IC50 does the source give for CCOc1ccc(/C=C2/C(=N)N3OC(C)=CC3=NC2=O)cc1OC here?
Its IC50 is > 30 µM (inactive).

For COc1cccc(C2C(C(=O)OCc3ccccc3)=C(C)Nc3ncnn32)c1OC (centres undefined), which IC50 is on record?
The IC50 was 3.82 µM.

For CCCCCCn1c(O)c(C=NCCCn2ccnc2)c(=O)[nH]c1=O, which IC50 is on record?
Its IC50 is 14.3 µM.

With CC1=C(C(=O)Nc2ccccc2F)C(c2ccsc2)C2=C(CC(C)(C)CC2=O)N1 (centres undefined) as the compound, how does the IC50 read?
Its IC50 is > 30 µM (inactive).

For CC1=C(C(=O)Nc2ccccc2F)C(c2cccs2)C2=C(CCCC2=O)N1 (centres undefined), which IC50 is on record?
The IC50 was > 30 µM (inactive).

Which IC50 does the source give for COc1cc(/C=N/NC(=O)c2ccc(O)cc2)ccc1Oc1ccc([N+](=O)[O-])cn1 here?
Its IC50 is > 30 µM (inactive).

Which IC50 does the source give for CCc1ccc(/C=N/Nc2ncnc3nc[nH]c23)cc1 here?
The IC50 was 26.6 µM.

How did the IC50 turn out when COc1ccc(-c2nn(-c3ccccc3)cc2/C=N/O)cc1 was run?
The IC50 was 0.432 µM.
